Experimental findings from US4514410A, “Substituted 8-phenylisoxazolo[4,3-e][1,4]diazepin-5-ones” (Hoechst-Roussel Pharmaceuticals Inc., priority 1984, dated 1985) are described below.

The structures appear in SMILES notation.

In test [1] the test system is extensor tonus in electroshocked mice. The test can be described thus: Inhibition of extensor tonus induced by electroshock in mice (anticonvulsant). The format is in vivo. The settings on record: Mus musculus, effective dose for 50% inhibition of extensor tonus. The text has this:
The anti-convulsant activity of some of the compounds of this invention expressed in terms of the effective dose for 50% inhibition of extensor tonus in mg/kg of body weight in electroshocked mice is given in Table I.

Test [2] is described as follows: Average conflict response ratio (anxiolytic). Type of test: in vivo. The settings on record: drug:control. On the procedure:
The compounds of the invention are also useful as anxiolytic agents due to their ability to reduce anxiety in mammals. Anxiolytic activity is measured as the average conflict response ratio (drug:control) at 40 mg/kg of body weight.

In test [1], `CC1=C2C(=C(c3ccccc3Cl)N=CC(=O)N2C)NO1` [3,4-Dimethyl-8-(2-chlorophenyl)isoxazolo[4,3-e][1,4]diazepin-5-one] yielded an ED50 of 35.6 mg/kg. For the same compound, the “Average Conflict Response Ratio” value in test [2] (at 40 mg/kg of body weight) was determined as 18.2.
For `CC1=C2C(=C(c3ccccc3F)N=CC(=O)N2C)NO1` [3,4-Dimethyl-8-(2-fluorophenyl)isoxazolo[4,3-e][1,4]diazepin-5-one], in that order: 79.8 mg/kg and 11.2.
For `CC1=C2C(=C(c3ccccc3)N=CC(=O)N2C)NO1` [3,4-Dimethyl-8-phenylisoxazolo[4,3-e][1,4]diazepin-5-one], in that order: 25.1 mg/kg and 31.7.
In the case of `CC(=O)Nc1nnc(S(N)(=O)=O)s1` [acetazolamide, reference compound], the ED50 in test [1] turned out to be 29.1 mg/kg.
Consider `CNC1=Nc2ccc(Cl)cc2C(c2ccccc2)=[N+]([O-])C1` [chlordiazepoxide, reference compound], for which, in test [2] (@ 20 mg/kg (standard)), the “Average Conflict Response Ratio” value is 32.6.

Broadly, the ED50 is the midpoint of the dose-response relation. Low values mean greater potency, high ones weaker potency.
